Assay results taken from US20060234911A1, “Method of reversing epithelial mesenchymal transition” (priority 2005, published 2006).

What was measured:
mTEC-KO cells [1] = test: Reversal of mesenchymal actin cytoskeleton, F-actin phalloidin staining; format: cell-based, mouse; conditions: 100 pM TGF-β1 72 h, then inhibitor 24 h; 5 μM SB431542, 1 μM SB203580, 1 μM Y27632, 10 μM U0126, 15 μM SP600125
Experimental: Renal tubular epithelial cells (mTEC-KOs) were treated with 100 pm TGF-β1 for 72 hours and then kinase inhibitors were added for an additional 24 hours. The F-actin in the cells was visualized by staining with phalloidin. mTEC-KO cells were treated with a single kinase inhibitor (A-E) or with SB431542 plus a second kinase inhibitor (F-I). Single kinase inhibitors and concentrations were: 5 μM SB431542 (A), 1 μM SB203580 (B), 1 μM Y27632 (C), 10 μM U0126 (D), or 15 μM SP600125 (E). Combination kinase inhibitors included 5 μM SB431542 with 1 μM SB203580 (F), 1 μM Y27632 (G), 10 μM U0126 (H) or 15 μM SP600125 (I). […] White arrows point to stress fibers.
(§1) Cells were seeded on glass cover slips (Fisher) and cultured as described above. Cells were treated, fixed in 4% paraformaldehyde, and permeabilized in PBS containing 0.1% Triton X-100 for 10 min. Nonspecific sites were blocked with 10% BSA or normal goat serum for 30 min. F-actin was stained at a 1:1000 dilution in 2% BSA of Texas Red-conjugated phalloidin (Sigma) and incubated for 30 min. E-cadherin (BD Biosciences) was diluted at 1:200 in 2% normal goat serum and a secondary antibody (Molecular Probes) at a 1:500 dilution was used for detection. All washes were done in 1× PBS.
To examine the reversibility of the EMT induced by TGF-β1 in mTEC-KO cells, we added inhibitors of kinases previously implicated in EMT. Cells were treated with 100 pM TGF-β1 for 72 hours to induce EMT and kinase inhibitors were added for an additional 24 hours. […] To assess the effects of the kinase inhibitors on EMT, the actin cytoskeleton was examined by phalloidin staining.
Since EMT effects are mediated by multiple cellular pathways and none of the single kinase inhibitors reverted the EMT phenotype, we applied combinations of two inhibitors. […] Cortical actin bordering the cell-cell junctions was restored by both combinations. The addition of either the MEK1 inhibitor or the JNK inhibitor to the […] inhibitor had no detectable effect on the mesenchymal phenotype of the cells (FIGS. 4H and I).

Ksp-cadherin = Ksp-cadherin mRNA by quantitative RT-PCR after EMT; format: cell-based, mouse; conditions: 100 pM TGF-β1 72 h, then inhibitor(s) for an additional 24 hours
Experimental: In a six well plate, 50,000 cells were seeded and appropriately treated. Total RNA was isolated using RNAeasy Miniprep kit (Qiagen) and quantified by UV spectrophotometer. 1.5 μg of RNA was converted by reverse transcriptase into cDNA using the OmniScript kit (Qiagen). […] 3′. cDNA was amplified in an Opticon 2 PCR machine (MJ Research) and labeled by the DyNAmo SYBR Green qPCR Kit. The amplification was carried out in the following manner: initial denaturation for 10 min at 95° C., denaturation for 10 sec at 95° C., annealing for 30 sec at the appropriate temperature, and extension for 30 sec at 72° C. Standards were created from Pfu (Stratagene) amplified PCR products purified by gel purification. Glyceraldehyde-3-phosphate dehydrogenase (GAPDH) was used as an internal control to normalize gene expression.
The effects of individual or combinations of kinase inhibitors on the expression of several genes altered by EMT were measured by quantitative RT-PCR.

SM22 = SM22 mRNA by quantitative RT-PCR after EMT; format: cell-based, mouse; conditions: 100 pM TGF-β1 72 h, then inhibitor(s) for an additional 24 hours
Experimental: (§2) FIG. 5: Restoration of epithelial gene expression patterns by kinase inhibitors illustrates a requirement for two kinase inhibitors to restore cadherin expression. mTEC-KO cells were treated with 100 pm TGF-β1 for 72 hours to induce EMT. Single kinase inhibitors or inhibitor combinations were added, cells were grown for an additional 24 hours and harvested for preparation of RNA. Ksp-cadherin (A), SM22 (B), and MMP-9 (C) mRNA levels were measured by quanitative RT-PCR. Significant differences between the untreated (No TGF-β1) cells versus cells treated with TGF-β1 or with TGF-β1 followed by inhibitor are indicated with an asterisk (*) (P<0.05, n=9). Significant differences between single inhibitors versus combination inhibitors are indicated by a letter (a,b,c) over the bar showing the combination. Each letter refers to the single inhibitor in the graph (indicated by the letter below the name of the inhibitor).
(§3) In a six well plate, 50,000 cells were seeded and appropriately treated. Total RNA was isolated using RNAeasy Miniprep kit (Qiagen) and quantified by UV spectrophotometer. 1.5 μg of RNA was converted by reverse transcriptase into cDNA using the OmniScript kit (Qiagen). Primers used for Q-PCR were: KSP-Cadherin forward-5′ CTG CAC ACA GM GTC CCT GA 3′, reverse 5′ CCTTGTCGCCACTAGAAAGC 3′; MMP-9-SuperArray (Frederick, Md.) PPM03661A; SM22 forward 5′GCA GTC CM MT TGA GM GA 3′, reverse 5′ CTGTTGCTGCCCATTTGAAG 3′; PAI-1 forward 5′TTCAGCCCTTGCTTGCCTC 3′, reverse 5′[…] 3′. cDNA was amplified in an Opticon 2 PCR machine (MJ Research) and labeled by the DyNAmo SYBR Green qPCR Kit. The amplification was carried out in the following manner: initial denaturation for 10 min at 95° C., denaturation for 10 sec at 95° C., annealing for 30 sec at the appropriate temperature, and extension for 30 sec at 72° C. Standards were created from Pfu (Stratagene) amplified PCR products purified by gel purification. Glyceraldehyde-3-phosphate dehydrogenase (GAPDH) was used as an internal control to normalize gene expression. […]

MMP-9 = MMP-9 mRNA by quantitative RT-PCR after EMT; format: cell-based, mouse; conditions: 100 pM TGF-β1 72 h, then inhibitor(s) for an additional 24 hours
Experimental: as §2, §3

E-cadherin = E-cadherin immunofluorescence at cell junctions after EMT; format: cell-based, mouse; conditions: 100 pM TGF-β1 72 h, then inhibitors for an additional 36 hours; 5 μM SB431542, 5 μM SB203580, 5 μM Y27632, 15 μM SP600125
Experimental: FIG. 6: E-cadherin is restored by combining TβRI kinase inhibitor with either the ROCK inhibitor or the p38 MAPK inhibitor. E-cadherin is found between mTEC-KO cells (A). mTEC-KO cells were treated with 100 pM TGF-β1 for 72 hours to induce mesenchymal state in which E-cadherin is lost (B). Single inhibitors or combinations of two inhibitors were added for an additional 36 hours. […] E-cadherin reformed between cells that used combination kinase inhibitors which included 5 μM SB431542 with 5 μM SB203580 (G), 5 μM Y27632 (H), but not 15 μM SP600125 (I). Cell lysates from mTEC-KOs were analyzed by western blot using antibodies to E-cadherin and β-tubulin (J). Control epithelial cells were grown without TGF-β (Lane 3). The cells were then treated for an additional 48 hours with no inhibitor (Lane 2), single inhibitors (5 μM Y27632, Lane 6; 5 μM SB203580, Lane 7; 5 μM SB431542, Lane 8) or with the combination of 5 μM SB431542 with either 15 μM SP600125 (Lane 1), 5 μM Y27632 (Lane 4) or 5 μM SB203580 (Lane 5).
as §1
An important criterion for epithelium restoration is re-expression of the cell-cell junction adhesion protein E-cadherin. mTEC-KO cells were treated with 100pm TGF-β1 for 72 hours to induce EMT and then kinase inhibitors were added for an additional 24-48 hours (FIG. 6).

[2] = cited from earlier work
mTEC-KO cells [3] = test: Blocking of TGF-β1-induced EMT (cell morphology, phalloidin staining); format: cell-based, mouse; conditions: 10 μM SB431542 together with TGF-β1 for 72 hours
Experimental: FIG. 1: TGF-β1 induces EMT in renal tubular epithelial cells. mTEC-KOs were incubated for 72 hours without TGF-β1 (A,D), with 100 pM TGF-β1 (B, E) or with TGF-β1 and 10 μM SB431542. Cell morphology was observed by brightfield phase microscopy at 100× magnification (A-C). […] White arrows point to stress fibers.
TGF-β knockout Murine Renal Epithelial Tubular Cells (mTEC-KO) were maintained in Renal Epithelial Cell Growth Medium (Cambrex, Md.) containing 0.25% Fetal Bovine serum (FBS), supplemented with a Bullet Kit that contained: epidermal growth factor, insulin, hydrocortisone, GA-1000, epinephrine, T3, transferrin (Cambrex), as well as penicillin and streptomycin (Gibco) in a 37° humidified 5% CO2 incubator.
as §1, with “PBS. […]” for “PBS.”

PAI-1 = PAI-1 mRNA expression by quantitative RT-PCR in TGFβ-induced mesenchymal cells; format: cell-based, mouse; conditions: 100 pM TGF-β1 72 hours, then 5 uM inhibitor for 24 hours
Experimental: TGFβ1 ligand (100 pM) was added to mTEC-KOs for 72 hours, followed by the addition of 5 μM SB431542 plus 100 pM TGFβ1 for an additional time 24 hours. Cell lysates were used to prepare RNA which was examined by quantitative RT-PCR for PAI-1. Significant differences in PAI-1 expression level between cells treated with TGF-β1 alone versus cells treated with TGF-β1 and then with inhibitor for the indicated times are indicated with an asterisk (*) (P<0.05, n=9).
as §3, with “C.” for “C. Standards were created from Pfu (Stratagene) amplified PCR products purified by gel purification. Glyceraldehyde-3-phosphate dehydrogenase (GAPDH) was used as an internal control to normalize gene expression.”

[4] = test system: mouse distal tubular epithelial cells; conditions: 100 ng/ml BMP7 for 48 hours; cited from earlier work
[5] = 300 ug/kg human BMP7 every other day beginning at week three; cited from earlier work

| Molecule | reversal of mesenchymal actin stress fiber morphology, single kinase inhibitor (mTEC-KO cells [1]) | Ksp-cadherin mRNA level (Ksp-cadherin) | SM22 mRNA level (SM22) | MMP-9 mRNA level (MMP-9) | E-cadherin at cell junctions (localization) (E-cadherin) | other results |
| --- | --- | --- | --- | --- | --- | --- |
| C[C@@H](N)[C@H]1CC[C@H](C(=O)Nc2ccncc2)CC1 [Y27632] | fail to reverse the mesenchymal actin cytoskeleton | increased Ksp-cadherin to intermediate levels | partially reduced SM22 levels | increased the level of MMP9 expression | caused an increase in reforming E-cadherin at cell junctions |  |
| HGF: hepatocyte growth factor |  |  |  |  |  | reversal of EMT in vivo [2]: only provided a partial reversal of EMT |
| NC(=O)c1ccc(-c2nc(-c3ccc4c(c3)OCO4)c(-c3ccccn3)[nH]2)cc1 [SB431542] | did not reverse the mesenchymal actin stress fiber morphology | increased Ksp-cadherin to intermediate levels | efficiently reduced SM22 and MMP-9 expression to pre-EMT levels | efficiently reduced SM22 and MMP-9 expression to pre-EMT levels | caused an increase in reforming E-cadherin at cell junctions | TGF-β1-induced transition of epithelial cells into mesenchymal cells (mTEC-KO cells [3]): blocked the TGF-β1-induced transition of the mTEC-KO epithelial cells into mesenchymal cells; actin stress fibers (phalloidin) when inhibitor is given with TGF-β1 (mTEC-KO cells [3]): very few actin stress fibers were observed; PAI-1 mRNA level (PAI-1): sufficient to reduce the mRNA level |
| N#CC(=C(/N)Sc1ccccc1N)/C(C#N)=C(\N)Sc1ccccc1N [U0126] | fail to reverse the mesenchymal actin cytoskeleton |  |  |  |  |  |
| C[S+]([O-])c1ccc(-c2nc(-c3ccncc3)c(-c3ccc(F)cc3)[nH]2)cc1 (stereo not shown) [SB203580] | fail to reverse the mesenchymal actin cytoskeleton | led to a further decrease in Ksp-cadherin expression | did not reduce SM22 or MMP9 transcript levels | did not reduce SM22 or MMP9 transcript levels | caused an increase in reforming E-cadherin at cell junctions |  |
| BMP7: TGFβ superfamily member that acts through distinct receptors and Smad proteins (protein, UniProt P18075 293-431, looked up) Bone morphogenetic protein 7: STGSKQRSQNRSKTPKNQEALRMANVAENSSSDQRQACKKHELYVSFRDLGWQDWIIAPEGYAAYYCEGECAFPLNSYMNATNHAIVQTLVHFINPETVPKPCCAPTQLNAISVLYFDDSSNVILKKYRNMVVRACGCH |  |  |  |  |  | reversal of TGF-β1 induced EMT (E-cadherin expression, epithelial morphology) [4]: reversed; renal pathology (mortality, renal function) [5]: reversed the renal pathology as indicated by a decline in mortality, and improvement in renal function |
